In paper PMC7900953, “Location of a single histidine within peptide carriers increases mRNA delivery” (The Journal of Gene Medicine, 2020):

Columns and labels:
MDA‐MB‐231 cells = assay: In vitro transfection of luciferase-expressing mRNA with HK polyplexes; assay type: cell-based; settings: for Effectiveness as carrier of mRNA: luciferase mRNA polyplexes; for Luciferase activity, RLU/µg-Protein: polyplex in Opti-MEM on cells 4 h, then DMEM/10% serum, luciferase 24 h later, mean ± SD
Experimental: Several HK peptides were examined for their ability to carry a luciferase‐expressing mRNA (CleanCap Firefly Luciferase mRNA; Trilink Biotechnologies, Inc., San Diego, CA, USA) into MDA‐MB‐231 cells (America Type Tissue Culture, Manassas, VA, USA). In brief, 3 × 10^4 cells were plated into a 24‐well plate containing 500 μl of Dulbecco’s modified Eagle’s medium (DMEM) and 10% fetal bovine serum (Thermo Fisher Scientific, Waltham, MA, USA). After 24 hours, when the cells were 60–80% confluent, the media in each well was changed to Opti‐MEM (Thermo Fisher Scientific). To prepare HK polyplexes, mRNA (1 μg) in 50 μl of Opti‐MEM was briefly mixed well with one of the HK peptides (4–12 μg) and maintained at room temperature for 30 minutes. This polyplex was then added dropwise to the cells. After 4 hours, the Opti‐MEM media was removed and replaced with 0.5 ml of DMEM/10% serum. Twenty‐four hours later, the cells were lysed, and luciferase activity (Promega Corporation, Madison, WI, USA) was measured. ^28 Also, a negative control (mRNA without the carrier) was added to the cells and luciferase activity measured 24 hours later.
FIGURE 1 Comparison of H3K(+H)4b and H3K4b peptides as carriers of mRNA. To form polyplexes, the mRNA (1 μg) was mixed with three different ratios of the HK (4, 8 and 12 μg) polymer for 30 minutes. The mRNA polyplexes were then added to the cells as described in the Materials and methods, and luciferase activity was measured 24 hours later. ***p < 0.001; ****p < 0.0001, H3K(+H)4b versus H3K4b
FIGURE 6 Comparing H3K(+H)4b and other four‐branched HK peptides for mRNA transfection. After polyplexes were formed with HK peptides (4 μg) and luciferase‐expressing mRNA (1 μg) and added to cells, luciferase activity was measured […] later. These HK peptides contained an additional histidine in the second motif.
FIGURE 7 Comparison of H3K(+H)4b with branched peptides without an additional histidine in the second motif. Polyplexes were formed with mRNA (1 μg) and various HK peptides (4 μg) and, after their addition to cells, luciferase activity was determined 24 h later. H3K(1+H)4b and H3K(3+H)4b peptides have an extra histidine in the first and third domains, respectively. H3K(1,3+H)4b has two additional histidines: one in the first and the other third motif. […] Unlike H3K(+H)4b, the predominant repeating motif of H2K4b in its branch is ‐HHK. ***p < 0.001, H3K(+H)4b versus H2K4b or H3K(1,3+H)4b; ****p < 0.0001, H3K(+H)4b versus H3K(1+H)4b or H3K(3+H)4b motifs
To prepare HK polyplexes, luciferase-expressing mRNA (1 µg) in 50 µl of Opti-MEM was briefly mixed with one of the HK peptides (4, 8, or 12 µg) and maintained at room temperature for 30 min. This polyplex was then added dropwise to the MDA-MB-231 cells and after four h, the Opti-MEM media was removed and replaced with DMEM/10% serum. Twenty-four hours later, luciferase activity was measured.

[1] = Particle size, polydispersity index (PDI) and zeta potential of polyplexes (dynamic light scattering); assay type: physicochemical; settings: HK peptide (4 μg) + mRNA (1 μg), 25°C; for Zeta potential of polyplex / Size of polyplex: mean ± SD of three measurements; for Size of polyplex: DLS 90°, z‐average; for PDI of polyplex: DLS
Experimental: The size, PDI and zeta potential were determined with the Zetasizer (Malvern, Westborough, MA, USA) and analyzed with Zetasizer, version 6.2 (Malvern). Using dynamic light scattering at a 90° angle, the size of the particles were reported as the z‐average diameter from the intensity‐weighted size distribution. Prior to the measurements, the samples were equilibrated to 25°C for 2 minutes. Each measurement had at least 10 sub‐runs under the automatic mode of the software. The particle size, PDI and zeta potential data point represent the mean ± SD of three measurements. After mixing HK peptides (4 μg) and mRNA (1 μg) in 100 μl of defined media (Opti‐MEM, water, or DMEM/8% FBS) for 30 minutes, 100 μl of additional defined media was added to the polyplex solution (total volume 200 μl) to measure the size and PDI. To determine the zeta potential, 800 μl more of the media was added (total volume 1000 μl), mixed gently and then added to the disposable zeta cell.

Acid–base titration = assay type: physicochemical; settings: 5 mg/ml, from pH 3.0, 5 μl aliquots of 0.05 M NaOH to about pH 9.0
Experimental: After the polymer solution [H2K4b, H3K4b, H3K(+H)4b and H4K4b] was adjusted to pH 3.0 (5 mg/ml; initial volume 1 ml), aliquots (5 μl) of NaOH (0.05 M) were stepwise added with the pH measured (FiveEasy™ meter; InLab Solids Pro‐ISM pH electrode; Mettler Toledo, Columbus, OH, USA). Titration was stopped at approximately pH 9.0.
FIGURE 2 Titration of different HK peptide solutions. Solutions of polymers (5 mg/ml) [H2K4b, H3K4b, H3K(+H)4b and H4K4b] were adjusted to pH 3 (initial volume 1 ml) and then 5‐μl aliquots of 0.05 N NaOH were stepwise added and the pH was measured

[2] = ratio 1:4 (wt:wt; mRNA:polymer; 1 µg mRNA, 4 µg HK)
[3] = ratio 1:8 (wt:wt; mRNA:polymer; 1 µg mRNA, 8 µg HK)
[4] = ratio 1:12 (wt:wt; mRNA:polymer; 1 µg mRNA, 12 µg HK)

Substance | Luciferase expression relative to H3K4b peptide (MDA‐MB‐231 cells; fold greater, ratio 4:1 (HK:mRNA; w:w)) [fold] | Effectiveness as carrier of mRNA (MDA‐MB‐231 cells) | Luciferase activity, RLU/µg-Protein (MDA‐MB‐231 cells; [2]) [RLU/µg-Protein] | Luciferase activity, RLU/µg-Protein (MDA‐MB‐231 cells; [3]) [RLU/µg-Protein] | Luciferase activity, RLU/µg-Protein (MDA‐MB‐231 cells; [4]) [RLU/µg-Protein] | Zeta potential of polyplex ([1]; DMEM/8%FBS) [mV] | Size of polyplex ([1]; DMEM/8%FBS) [nm] | PDI of polyplex ([1]; DMEM/8%FBS) | Zeta potential of polyplex ([1]; Opti‐MEM) [mV] | Size of polyplex ([1]; Opti‐MEM) | PDI of polyplex ([1]; Opti‐MEM) | Zeta potential of polyplex ([1]; Water) [mV] | Size of polyplex ([1]; Water) [nm] | PDI of polyplex ([1]; Water) | Buffering profile from pH titration curves (Acid–base titration)
R = KHHHKHHHKHHHHKHHHK [H3K(+H)4b, four‐branched analogue of H3K4b with one extra histidine in the second ‐HHHK‐ motif] | 10 | effective carriers of mRNA | 1532.9±122.9 | 1656.3±202.5 | 1033.4±197 | −12.7 ± 1.04 | 289 ± 38.2 | 0.307 | 2.92 ± 1.83 | 1,004 ± 61.1 nm | 0.362 | 20.77 ± 1.12 | 234.9 ± 2.7 | 0.212 | minimal differences in their buffering profile
R = KHHHKHHHKHHHKHHHK [H3K4b, four‐branched histidine‐lysine peptide with four ‐HHHK‐ motifs in each branch] | – | not effective carriers of mRNA | 156.8±41.8 | 62.1±13.2 | 18.1±4.0 | −12.1 ± 2.22 | 578 ± 80.5 | 0.421 | −4.20 ± 2.78 | 2,030.7 ± 117.3 nm | 0.466 | 16.47 ± 0.74 | 199.9 ± 0.8 | 0.171 | minimal differences in their buffering profile
